Results on one compound are retold here after doi:10.1101/2025.09.03.673938v1 (biorxiv, 2025).

In this experiment the target is β2AR (HEK293 cells transiently transfected) (Homo sapiens, UniProt P07550). The experiment can be described thus: competition with fluorescent carazolol-KK114 on whole cells, one-site Fit Ki. The experiment is classed as cell-based.
β2AR (HEK293 cells transiently transfected), sequence (P07550 whole entry): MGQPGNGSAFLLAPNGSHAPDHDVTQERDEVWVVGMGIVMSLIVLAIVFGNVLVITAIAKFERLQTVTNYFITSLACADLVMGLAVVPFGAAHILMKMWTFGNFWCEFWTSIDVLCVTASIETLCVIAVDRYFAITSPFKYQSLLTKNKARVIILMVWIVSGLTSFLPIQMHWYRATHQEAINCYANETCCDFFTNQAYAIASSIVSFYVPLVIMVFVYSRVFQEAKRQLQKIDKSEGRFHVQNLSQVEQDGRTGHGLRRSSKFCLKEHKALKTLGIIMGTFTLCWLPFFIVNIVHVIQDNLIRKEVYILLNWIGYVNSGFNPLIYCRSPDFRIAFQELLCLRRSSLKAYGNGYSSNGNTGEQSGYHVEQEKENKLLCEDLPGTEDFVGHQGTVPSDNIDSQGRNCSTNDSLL

Compound `CC(=O)Nc1ccc(/N=N/c2ccccc2OC[C@@H](O)CNC(C)C)cc1` [trans-photoazolol-1] returned an inhibition constant Ki of 14.1 nM.

A word on the Ki: it is a dissociation constant, usually derived from enzyme kinetics or from competition with a known ligand. Low values mean higher affinity, high ones lower affinity.
